Experimental data published in ChEMBL document CHEMBL3885861, “Open TG-GATES”.

Species: Rattus norvegicus
Assay: Open TG-GATES - Regimen: Daily Repeat
Type: toxicity, organism-based, Sprague-Dawley
Design: regimen Daily Repeat, gender Male, age 6 weeks
Conditions: in vivo, po, 75 mg/kg, route gavage, dose level Middle; for APTT / Bas / Eos / Fbg / Hb / Ht / Lym / MCH / MCHC / MCV / Mono / Neu / PT / Plat / RBC / Ret / WBC: tissue Blood; for KIDNEY_L / KIDNEY_R / KIDNEY_TOTAL: tissue Kidney; for LIVER: tissue Liver; for ALP / ALT / AST / BUN / CRE / DBIL / GLC / K / Na / PL / RALB / TBIL / TC / TG / TP / gamma-GTP: tissue Plasma

CN1C(=O)CN=C(c2ccccc2)c2cc(Cl)ccc21 [DIAZEPAM]
TERMINAL_BW (72 h, time 3 day): 244.2 g
APTT (72 h, time 3 day): 16.3 s
Bas (72 h, time 3 day): 0%
Eos (72 h, time 3 day): 1.2%
Fbg (72 h, time 3 day): 235.6 mg/dL
Hb (72 h, time 3 day): 13.7 g/dL
Ht (72 h, time 3 day): 41.3%
Lym (72 h, time 3 day): 77.4%
MCH (72 h, time 3 day): 21.3 pg
MCHC (72 h, time 3 day): 33.3%
MCV (72 h, time 3 day): 64.1 fL
Mono (72 h, time 3 day): 6%
Neu (72 h, time 3 day): 15.8%
PT (72 h, time 3 day): 11.6 s
Plat (72 h, time 3 day): 112.9 x10_4/uL
RBC (72 h, time 3 day): 644 x10_4/ul
Ret (72 h, time 3 day): 6.3%
WBC (72 h, time 3 day): 129.7 x10_2/uL
KIDNEY_L (72 h, time 3 day): 1.1 g
KIDNEY_R (72 h, time 3 day): 1 g
KIDNEY_TOTAL (72 h, time 3 day): 2.1 g
LIVER (72 h, time 3 day): 12.5 g
ALP (72 h, time 3 day): 782.4 IU/L
ALT (72 h, time 3 day): 33.2 IU/L
AST (72 h, time 3 day): 62.6 IU/L
BUN (72 h, time 3 day): 19 mg/dL
CRE (72 h, time 3 day): 0.6 mg/dL
DBIL (72 h, time 3 day): 0.008 mg/dL
GLC (72 h, time 3 day): 194.2 mg/dL
K (72 h, time 3 day): 5 meq/L
Na (72 h, time 3 day): 138.7 meq/L
PL (72 h, time 3 day): 164.2 mg/dL
RALB (72 h, time 3 day): 4.1 g/dL
TBIL (72 h, time 3 day): 0.4 mg/dL
TC (72 h, time 3 day): 90.8 mg/dL
TG (72 h, time 3 day): 99.2 mg/dL
TP (72 h, time 3 day): 6 g/dL
gamma-GTP (72 h, time 3 day): 0.8 IU/L
TERMINAL_BW ([…], time 7 day): 272.1 g
TERMINAL_BW ([…], time 14 day): 328 g
TERMINAL_BW ([…], time 28 day): 403 g
APTT ([…], time 7 day): 16.8 s
Bas ([…], time 7 day): 0%
Eos ([…], time 7 day): 1%
Fbg ([…], time 7 day): 230.6 mg/dL
Hb ([…], time 7 day): 14.3 g/dL
Ht ([…], time 7 day): 43.5%
Lym ([…], time 7 day): 77.8%
MCH ([…], time 7 day): 21 pg
MCHC ([…], time 7 day): 32.9%
MCV ([…], time 7 day): 63.8 fL
Mono ([…], time 7 day): 5.8%
Neu ([…], time 7 day): 15.4%
PT ([…], time 7 day): 11.4 s
Plat ([…], time 7 day): 107.7 x10_4/uL
RBC ([…], time 7 day): 682.8 x10_4/ul
Ret ([…], time 7 day): 5.5%
WBC ([…], time 7 day): 100.7 x10_2/uL
APTT ([…], time 14 day): 16.7 s
Bas ([…], time 14 day): 0%
Eos ([…], time 14 day): 0.6%
Fbg ([…], time 14 day): 228.6 mg/dL
Hb ([…], time 14 day): 14.6 g/dL
Ht ([…], time 14 day): 43.7%
Lym ([…], time 14 day): 82.6%
MCH ([…], time 14 day): 21.1 pg
MCHC ([…], time 14 day): 33.4%
MCV ([…], time 14 day): 63 fL
Mono ([…], time 14 day): 3.8%
Neu ([…], time 14 day): 12.8%
PT ([…], time 14 day): 11.8 s
Plat ([…], time 14 day): 111.6 x10_4/uL
RBC ([…], time 14 day): 694.4 x10_4/ul
Ret ([…], time 14 day): 4.9%
WBC ([…], time 14 day): 142.4 x10_2/uL
APTT ([…], time 28 day): 17.8 s
Bas ([…], time 28 day): 0%
Eos ([…], time 28 day): 1.2%
Fbg ([…], time 28 day): 236.6 mg/dL
Hb ([…], time 28 day): 15.2 g/dL
Ht ([…], time 28 day): 45.7%
Lym ([…], time 28 day): 80.4%
MCH ([…], time 28 day): 19 pg
MCHC ([…], time 28 day): 33.3%
MCV ([…], time 28 day): 57 fL
Mono ([…], time 28 day): 3.6%
Neu ([…], time 28 day): 14.4%
PT ([…], time 28 day): 12 s
Plat ([…], time 28 day): 106.3 x10_4/uL
RBC ([…], time 28 day): 802.8 x10_4/ul
Ret ([…], time 28 day): 2.6%
WBC ([…], time 28 day): 121 x10_2/uL
KIDNEY_L ([…], time 7 day): 1.2 g
KIDNEY_R ([…], time 7 day): 1.2 g
KIDNEY_TOTAL ([…], time 7 day): 2.3 g
KIDNEY_L ([…], time 14 day): 1.3 g
KIDNEY_R ([…], time 14 day): 1.4 g
KIDNEY_TOTAL ([…], time 14 day): 2.7 g
KIDNEY_L ([…], time 28 day): 1.4 g
KIDNEY_R ([…], time 28 day): 1.5 g
KIDNEY_TOTAL ([…], time 28 day): 2.9 g
LIVER ([…], time 7 day): 13.9 g
LIVER ([…], time 14 day): 15.5 g
LIVER ([…], time 28 day): 17.7 g
ALP ([…], time 7 day): 755 IU/L
ALT ([…], time 7 day): 36.8 IU/L
AST ([…], time 7 day): 57.8 IU/L
BUN ([…], time 7 day): 16.4 mg/dL
CRE ([…], time 7 day): 0.6 mg/dL
DBIL ([…], time 7 day): 0.01 mg/dL
GLC ([…], time 7 day): 199 mg/dL
K ([…], time 7 day): 4.5 meq/L
Na ([…], time 7 day): 138.9 meq/L
PL ([…], time 7 day): 155.2 mg/dL
RALB ([…], time 7 day): 4.2 g/dL
TBIL ([…], time 7 day): 0.3 mg/dL
TC ([…], time 7 day): 81.8 mg/dL
TG ([…], time 7 day): 86.4 mg/dL
TP ([…], time 7 day): 6.2 g/dL
gamma-GTP ([…], time 7 day): 1.2 IU/L
ALP ([…], time 14 day): 627.6 IU/L
ALT ([…], time 14 day): 32.8 IU/L
AST ([…], time 14 day): 59.2 IU/L
BUN ([…], time 14 day): 16 mg/dL
CRE ([…], time 14 day): 0.6 mg/dL
DBIL ([…], time 14 day): 0.006 mg/dL
GLC ([…], time 14 day): 194.8 mg/dL
K ([…], time 14 day): 4.4 meq/L
Na ([…], time 14 day): 141.1 meq/L
PL ([…], time 14 day): 144.8 mg/dL
RALB ([…], time 14 day): 4 g/dL
TBIL ([…], time 14 day): 0.4 mg/dL
TC ([…], time 14 day): 74.6 mg/dL
TG ([…], time 14 day): 87.4 mg/dL
TP ([…], time 14 day): 6.1 g/dL
gamma-GTP ([…], time 14 day): 1 IU/L
ALP ([…], time 28 day): 410.4 IU/L
ALT ([…], time 28 day): 32.2 IU/L
AST ([…], time 28 day): 56.8 IU/L
BUN ([…], time 28 day): 20.2 mg/dL
CRE ([…], time 28 day): 0.6 mg/dL
DBIL ([…], time 28 day): 0.012 mg/dL
GLC ([…], time 28 day): 192.4 mg/dL
K ([…], time 28 day): 4.2 meq/L
Na ([…], time 28 day): 139.9 meq/L
PL ([…], time 28 day): 151.4 mg/dL
RALB ([…], time 28 day): 4.1 g/dL
TBIL ([…], time 28 day): 0.3 mg/dL
TC ([…], time 28 day): 74 mg/dL
TG ([…], time 28 day): 136 mg/dL
TP ([…], time 28 day): 6.7 g/dL
gamma-GTP ([…], time 28 day): 0.4 IU/L
